Source: patent US9168247B2, “Beta carboline derivatives useful in the treatment of proliferative disorders” (FACULTES UNIVERSITAIRES NOTRE DAME DE LA PAIX, priority 2010, dated 2015)
Where two headings read alike, the source gives them in different places.

Legend:
[1] = system: human cancer cell lines (U373, T98G, Hs683, OE21, OE33); assay: MTT test, mean over the cancer cell lines; assay type: cell-based
Method: (§1) MTT tests were performed in order to rapidly, i.e., within 5 days, measure the effect of the present compounds on the overall cell growth. The test measured the number of metabolically active living cells that were able to transform the yellow product 3-(4,5-dimethylthiazol-2-yl)-2,5-diphenyl tetrazolium bromide (herein referred as MTT) into the blue product formazan dye by mitochondrial reduction. The amount of formazan obtained at the end of the experiment, measured by means of a spectrophotometer, is directly proportional to the number of living cells. Optical density determination thus enabled a quantitative measurement of the effect of the investigated compounds as compared to the control condition (untreated cells) and/or to other reference compounds.
(§2) Five human cancer cell lines set forth in Table 3 were used in the MTT tests. These cancer cell lines cover two histological cancer types including glioma (Hs683, T98G, U373), and oesophageal (OE21, OE33) cancers. The U373 cell line is apoptosis-resistant but autophagy-sensitive.
(§3) To perform the assay, cells were allowed to grow in 96-well micro-wells with a flat bottom with an amount of 100 μl of cell suspension per well with 5,000 to 8,000 cells/well depending on the cell type used. Each cell line was seeded in its appropriate culture medium.
(§4) The detailed experimental procedure was as follows: after a 24-hour period of incubation at 37° C., the culture medium was replaced by 100 μl of fresh medium in which the tested compound was previously dissolved, at the following molar concentrations: 1×10^−8 M, 5×10^−8 M, 1×10^−7 M, 5×10^−7 M, 1×10^−6 M, 5×10^−6 M, 1×10^−5 M, 5×10^−5 M and 1×10^−4 M. Each experiment was performed in sestuplicate (6 times).
(§5) After 72 hours of incubation at 37° C. with (experimental conditions) or without (control condition) the compound to be tested, the medium was replaced by 100 μl MTT dissolved in RPMI (1640 without phenol red) at a concentration of 0.5 or 1 mg/ml. The micro-wells were subsequently incubated during 3 hours and a half at 37° C. and centrifuged at 1300 rpm during 10 minutes. MTT was removed and formazan crystals formed were dissolved in […]. The micro-wells were shaken for 5 minutes and read on a spectrophotometer at wavelengths of 570 nm (maximal formazan absorbance).
(§6) For each experimental condition, the mean optical density was calculated, allowing the determination of the percentage of remaining living cells in comparison to the control.
(§7) The origin of all the cell lines we used, along with their biological characteristics, and the validation procedures of the MTT colorimetric assay as employed here are fully detailed in Van Quaquebeke et al., 2005, J Med Chem 48:849-856; Ingrassia et al., 2009, J Med Chem 52:1100-1114; Mathieu et al., 2009, J Cell Mol Med, Feb. 20, 2009.

U373 cells = assay: Cellular imaging (videomicroscopy) of cultured U373 cells: antiproliferative class and global growth ratio; assay type: cell-based, human; design: key to Anti proliferative class / anti-proliferative class-GGR: class I: actually cytostatic for 3 days (<10% of cell death at the 3rd day); class II: cyctostatic but becomes cytotoxic with <10% cell death on the 2nd day, and >20% of cell death on the 3rd day; class III: cytostatic but rapidly becomes cytotoxic with <10% cell death on the 1st day, >20% of cell death on the 2nd day and >50% of cell death on the 3rd day; class IV: cytotoxic (>50% of cell death on the first day); settings: for global growth ratio (GGR): GG treated cells/GG control cells, 72 h after drug addition, drug at its IC50 (MTT-test determined); for Anti proliferative class: cellular imaging of cultured U373 cells over three consecutive days
From the text: The effects of the di- and tri-substituted beta-carboline derivatives as described herein can also be determined on cell proliferation, migration and morphology by means of a cellular imaging approach (Debeir et al., Cytometry 60:29-40, 2004; Debeir et al., IEEE Trans Med Imaging 24:697-711, 2005) either in, e.g., the human U373-MG glioma cell line, which is apoptosis-resistant but autophagy-sensitive (Lefranc F et al., Neurosurgery 2008) or in, e.g., the human A549 non-small-cell-lung cancer cell line, which is apoptosis-resistant and autophagy-resistant (Mijatovic T et al., Neoplasia 2006, May; 8(5):402-12).
[…] The experiments are conducted in quadruplicates.
The behaviour of the cells, in terms of morphology, growth and death are thus investigated. The effect on the overall growth is measured by counting the number of cells on the first (0 h) and the last image (72 h) of each film. The global growth ratio (GGR) is then deduced by dividing the number of cells on the last image by the number of cells on the first image. The ratio GGRtreated cells/GGRcontrol cells is further calculated thereby providing a value that describes the effect of compounds of the present invention on the overall cell growth.
The methodology is fully described and validated in Debeir et al., 2008, Exp Cell Res 314:2985-2998 and Mathieu et al., 2009, J Cell Mol Med, Feb. 20, 2009.

U373 glioma cells = assay: MTT test, overall cell growth, U373; assay type: cell-based, human; settings: 72 hours of incubation
Method: as §1, §2, §3, §4, §5, §6, §7

[2] = system: OE33 oesophageal cancer cells; assay: MTT test, overall cell growth, OE33; assay type: cell-based, human
Method: as §1, §2, §3, §4, §5, §6, §7

T98G glioma cells = assay: MTT test, overall cell growth, T98G; assay type: cell-based, human; settings: 72 hours of incubation
Method: as §1, §2, §3, §4, §5, §6, §7

Hs683 glioma cells = assay: MTT test, overall cell growth, Hs683; assay type: cell-based, human
Method: as §1, §2, §3, §4, §5, §6, §7

[3] = system: OE21 oesophageal cancer cells; assay: MTT test, overall cell growth, OE21; assay type: cell-based, human
Method: as §1, §2, §3, §4, §5, §6, §7

[4] = mean over the cancer cell lines, MTT test, read-out: IC50 Mean ± SEM
[5] = Homo sapiens, mean over the cancer cell lines, MTT test, read-out: IC50 Mean ± SEM
[6] = Homo sapiens, OE33, 72 hours of incubation
[7] = Homo sapiens, Hs 683, 72 hours of incubation
[8] = Homo sapiens, OE21, 72 hours of incubation

Row | Structure (SMILES) | IC50 [1, 4] [µM] | global growth ratio (GGR) (U373 cells) | Anti proliferative class (U373 cells) | IC50 (U373 glioma cells) [µM] | IC50 ([2]; 72 hours of incubation) [µM] | IC50 (T98G glioma cells) [µM] | IC50 (Hs683 glioma cells; 72 hours of incubation) [µM] | IC50 ([3]; 72 hours of incubation) [µM] | IC50 ([1]; Homo sapiens, Glioma cell, MTT assay, submicromolar range, e.g. as low as, read-out: mean anti-proliferative effect on the glioma cell lines) [µM] | IC50 ([1]; Homo sapiens, Table 4, mean over cell lines, read-out: IC50 μM growth inhibition (MTT test)) [µM] | IC50 [1, 5] [µM] | IC50 (U373 glioma cells; Homo sapiens, U373 MG) [µM] | IC50 [2, 6] [µM] | IC50 (T98G glioma cells; Homo sapiens, T98G) [µM] | IC50 (Hs683 glioma cells; [7]) [µM] | IC50 [3, 8] [µM]
1 | C=CCOc1ccc2c(c1)[nH]c1c(C)nccc12 [JR211] | 30 ± 1 | 0.2 | II | 32 ± 2 | 29.8 ± 0.7 | 32 ± 0.7 | 28 ± 1 | 27 ± 2 |  |  |  |  |  |  |  | 
2 | Cc1nccc2c1[nH]c1cc(OCc3ccncc3)ccc12 [JR222] | 5 ± 1 | 0.4 | II | 2.5 ± 0.2 | 6.3 ± 0.1 | 3.6 ± 0.2 | 8.1 ± 0.2 | 5 ± 0.4 |  |  |  |  |  |  |  | 
3 | Cc1c2c(cc[n+]1Cc1ccccc1)c1ccc(OCC3CCCCC3)cc1n2CC1CCCCC1.[Br-] [CV24, 1-methyl-2-benzyl-7-cyclohexylmethyloxy-9-cyclohexylmethyl-β-carbolin-2-ium bromide] |  | 0.3 | I (class I: actually cytostatic for 3 days (<10% of cell death at the 3rd day)) |  |  |  |  |  | 0.34 to 0.8 | 0.34 | 0.34 ± 0.05 | 0.37 ± 0.02 | 0.37 ± 0.01 | 0.16 ± 0.03 | 0.38 ± 0.009 | 0.42 ± 0.008
4 | Cc1nccc2c1[nH]c1cc(OCCc3ccccc3)ccc12 [JR155] | 15 ± 3 | 0.2 | IV (class IV: cytotoxic (>50% of cell death on the first day)) | 9.1 ± 0.6 | 7.9 ± 0.3 | 21 ± 1 | 21 ± 3 | 14 ± 1 |  |  |  |  |  |  |  | 
5 | Cc1nccc2c3ccc(OCc4cccc(F)c4)cc3n(Cc3cccc(F)c3)c12 [CV5, 1-methyl-7-(3-fluorobenzyloxy)-9-(3-fluorobenzyl)-β-carboline] |  | 0.9 | I (class I: actually cytostatic for 3 days (<10% of cell death at the 3rd day)) |  |  |  |  |  |  |  | 14 ± 5 | 0.4 ± 0.06 | 16 ± 2 | 27 ± 1 | 17.5 ± 0.9 | 7.9 ± 0.2
6 | Cc1c2c(cc[n+]1Cc1ccc(F)cc1)c1ccc(OCc3cccc(F)c3)cc1n2Cc1cccc(F)c1.[Br-] [CV22, 1-methyl-2-(4-fluorobenzyl)-7-(3-fluorobenzyl)oxy-9-(3-fluorobenzyl)-β-carbolin-2-ium bromide] |  | 0.5 | I (class I: actually cytostatic for 3 days (<10% of cell death at the 3rd day)) |  |  |  |  |  |  |  | 2.7 ± 0.6 | 0.9 ± 0.1 | 3.4 ± 0.1 | 1.9 ± 0.3 | 4.5 ± 0.4 | 2.9 ± 0.1
7 | CCCn1c2cc(OCc3ccccc3)ccc2c2ccnc(C)c21 [CV33, 1-methyl-7-benzyloxy-9-propyl-β-carboline] |  | 0.3 | III |  |  |  |  |  |  |  | 21 ± 4 | 26 ± 1 | 9 ± 1 | 34 ± 1 | 13 ± 1 | 23 ± 2
8 | CCCn1c2cc(OCc3ccccc3)ccc2c2cc[n+](Cc3ccccc3)c(C)c21.[Br-] [CV34, 1-methyl-2-benzyl-7-benzyloxy-9-propyl-β-carbolin-2-ium bromide] |  | 0.3 | III |  |  |  |  |  |  |  | 1.1 ± 0.4 | 0.41 ± 0.03 | 0.3 ± 0.05 | 1.7 ± 0.5 | 2.6 ± 0.2 | 0.57 ± 0.08
9 | Cc1nccc2c3ccc(OCc4ccc(F)cc4)cc3n(Cc3ccc(F)cc3)c12 [CV11, 1-methyl-7-(4-fluorobenzyloxy)-9-(4-fluorobenzyl)-β-carboline] |  | 0.2 | III |  |  |  |  |  |  |  | 20 ± 3 | 30 ± 1 | 25 ± 2 | 14 ± 2 | 17 ± 2 | 15 ± 2
10 | Cc1nccc2c1[nH]c1cc(OCC3CCCCC3)ccc12 [JR167] | 11 ± 3 | 0.1 | IV (class IV: cytotoxic (>50% of cell death on the first day)) | 7.48 ± 0.07 | 8.1 ± 0.2 | 7.2 ± 0.2 | 22 ± 2 | 8.3 ± 0.2 |  |  |  |  |  |  |  | 
11 | Cc1c2c(cc[n+]1Cc1ccc(F)cc1)c1ccc(OCC3CCCCC3)cc1n2CC1CCCCC1.[Br-] [CV30, 1-methyl-2-(4-fluorobenzyl)-7-cyclohexylmethyloxy-9-cyclohexylmethyl-β-carbolin-2-ium bromide] |  | 0.8 | I (class I: actually cytostatic for 3 days (<10% of cell death at the 3rd day)) |  |  |  |  |  |  |  | 1.6 ± 0.4 | 0.04 ± 0.01 | 1 ± 0.1 | 2 ± 0.6 | 3.1 ± 0.3 | 1.4 ± 0.2
12 | Cc1nccc2c1[nH]c1cc(OCCO)ccc12 [JR226] | 46 ± 6 | 0.3 | I (class I: actually cytostatic for 3 days (<10% of cell death at the 3rd day)) | 42 ± 2 | 63 ± 4 | 53 ± 3 | 41 ± 3 | 30 ± 4 |  |  |  |  |  |  |  | 
